Test results from patent publication US10278999B2, “Synthesis of Nuxia oppositifolia nanoparticles” (KING SAUD UNIVERSITY, priority 2017, dated 2019).

Key:
Test in all cases: Antimicrobial activity, agar diffusion technique
Assay type in all cases: cell-based
Conditions in all cases: mean ± S.D. beyond well diameter (6 mm), 100 μl of samples
[1] = test system: Absidia corymbifera (RCMB 02564)
Method: (§1) The antimicrobial effect of N. oppositifolia nanoparticles synthesized according to Example 1 were evaluated against gram positive bacteria, gram negative bacteria, as well as fungi.
(§2) The antimicrobial effect of N. oppositifolia nanoparticles synthesized according to Example 2 were evaluated against gram positive bacteria, gram negative bacteria, as well as fungi.

[2] = test system: Geotricum candidum (RCMB 05097)
Method: as §1, §2

[3] = test system: Candida albicans (RCMB 05036)
Method: as §1, §2

[4] = test system: Streptococcus pyogenes (RCMB 010015)
Method: as §1, §2

[5] = test system: Staphylococcus epidermidis (RCMB 010024)
Method: as §1, §2

[6] = test system: Proteous vulgaris (RCMB 010085)
Method: as §1, §2

[7] = test system: Salmonella enteritidis (RCMB 010084)
Method: as §1, §2

[8] = test system: Klebsiella pneumoniae (RCMB 0010093)
Method: as §1, §2

## C[C@@H]1[C@H](O)[C@@H](C)/C=C/C=C/C=C/C=C/C=C/C=C/C=C/[C@H](O[C@@H]2O[C@H](C)[C@@H](O)[C@H](N)[C@@H]2O)C[C@@H]2O[C@](O)(C[C@@H](O)C[C@@H](O)[C@H](O)CC[C@@H](O)C[C@@H](O)CC(=O)O[C@H]1C)C[C@H](O)[C@H]2C(=O)O [Amphotericin B]
[1]
  Zone of Inhibition (±SD): 23.0 ± 0.10 mm
[2]
  Zone of Inhibition (±SD): 27.0 ± 0.20 mm
[3]
  Zone of Inhibition (±SD): 25.7 ± 0.10 mm

## CC1(C)S[C@@H]2[C@H](NC(=O)[C@H](N)c3ccccc3)C(=O)N2[C@H]1C(=O)O [Ampicillin]
[4]
  Zone of Inhibition (±SD): 26.3 ± 0.34 mm
[5]
  Zone of Inhibition (±SD): 25.0 ± 0.18 mm

## Gentamycin
[6]
  Zone of Inhibition (±SD): 23.4 ± 0.30 mm
[7]
  Zone of Inhibition (±SD): 25.2 ± 0.18 mm
[8]
  Zone of Inhibition (±SD): 26.4 ± 0.15 mm
